Test results taken from patent publication US20210069295A1, “GALECTINS CONTROL MTOR IN RESPONSE TO ENDOMEMBRANE DAMAGE AND PROVIDE A MECHANISM AND TARGET FOR THE TREATMENT OF AUTOPHAGY-RELATED DISEASES” (STC. UNM, priority 2017, published 2021).
Peptide text beside a SMILES is read from it.

Tested on: Ragulator-Rag complex
Assay: Co-immunoprecipitation of Ragulator, Rag GTPases and mTOR/Raptor in HEK293T cells
Type: cell-based
Settings: 100 μM GPN 1 h
Method: (A) Analysis of mTOR activity in TSC2-deleted (TSC2−/−) and wildtype (TSC2WT) HeLa cells treated with 100 μM GPN in full medium (Full) or starved in EBSS for 1 h. mTOR activity was monitored by immunoblotting analysis of S6K1 (T389) phosphorylation (phosphorylated S6K (p-T389) relative to total S6K). Ctrl, control (untreated cells). (B) Co-immunoprecipitation analysis of changes in interactions between Ragulator and Rag GTPases following treatment with GPN. HEK293T cells stably expressing FLAG-metap2 (control) or FLAG-p14 were treated with 100 μM GPN in full medium for 1 h. Cell lysates were immunoprecipitated (IP) with anti-FLAG antibody and immunoblotted for endogenous RagA or RagC. […] (D) Analysis of mTOR activity in HEK293T cells or HEK293T cells stably expressing constitutively active RagB GTPase (RagBQ99L) treated with 100 μM GPN in full medium or starved in EBSS for 1 h. mTOR activity was monitored as in A. Data, means±SEM, (n=3), † not significant, **p<0.01, ANOVA. […] (F) Quantification by HC of overlaps between mTOR and LAMP2 (representative images shown in FIG. S2C) in HEK293T cells and HEK293T cells stably expressing constitutively active RagB GTPase (RagBQ99L) treated with 100 μM GPN in full medium for 1 h. Data, means±SEM, n≥3 independent experiments (500 primary objects counted per well; ≥5 wells/sample per each experiment); † p≥0.05, *p<0.05, ANOVA. […]

## NCC(=O)N[C@@H](Cc1ccccc1)C(=O)Nc1ccc2ccccc2c1 [GPN, glycyl-L-phenylalanine 2-naphththylamide] (HELM PEPTIDE1{G.F.[c1ccc2cc(N[*:1])ccc2c1]}$$$$V2.0)
  interactions between Ragulator (p14 and p18) and RagA/RagC in co-IPs: enhanced interactions
  mTOR and Raptor levels in complexes with RagB or RagA: diminished mTOR and Raptor levels
